This passage reports T/C results from PubChem BioAssay AID330 (DTP/NCI, 2004).

Structures are written as SMILES. “And” between values parts separate entries of the source, which are not always exact repeats. Equal entries are not always repeated. Toxic doses and inconclusive results are not listed. Bridge positions count the residues as written; N and C are the ends. Square brackets hold non-standard residues; d marks the D form. Peptide text beside a SMILES is read from it. I, II: the chains in the order shown. * marks the point of attachment. Quinoxaline2carbonyl = O=C(c1cnc2ccccc2n1)*; NMeV = CN[CH](C(=O)O)C(C)C; NMeC = CN[CH](CS)C(=O)O

For this experiment, the system named is P388 leukemia ip, CD2F1 mice, survival T/C. Nature of the experiment: NCI In Vivo Anticancer Drug Screen. Data for tumor model P388 Leukemia (intraperitoneal) in CD2F1 (CDF1) mice. The settings on record: endpoint: median survival time, higher = longer survival. The essentials: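 Mice carrying the transplanted tumor received test compound or vehicle. Survival was recorded in each group, and the value is the treated-group measurement divided by that of the vehicle-treated control group.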

Where [1] appears, read: dose: 50.0 mg/kg/injection, schedule: Q01DX009 (ip), vehicle: saline with Tween-80.
Setting [2] is: dose: 100.0 mg/kg/injection, schedule: Q01DX009 (ip), vehicle: saline with Tween-80.
[3] abbreviates: dose: 200.0 mg/kg/injection, schedule: Q01DX009 (ip), vehicle: saline with Tween-80.
The mark [4] stands for this setting: dose: 50.0 mg/kg/injection, schedule: Q01DX005 (ip), vehicle: saline.
Setting [5] is: dose: 50.0 mg/kg/injection, schedule: Q01DX009 (ip), vehicle: Klucel (hydroxypropylcellulose) (HPC).
The mark [6] stands for this setting: dose: 60.0 mg/kg/injection, schedule: Q01DX005 (ip), vehicle: saline with Tween-80.
[7] abbreviates: dose: 120.0 mg/kg/injection, schedule: Q01DX005 (ip), vehicle: saline with Tween-80.
Where [8] appears, read: dose: 240.0 mg/kg/injection, schedule: Q01DX005 (ip), vehicle: saline with Tween-80.
Setting [9] is: dose: 25.0 mg/kg/injection, schedule: Q01DX009 (ip), vehicle: saline with Tween-80.

For `COC(C)C(Cl)C(=O)NN=C(c1ccccc1)c1ccccc1` (centres undefined), the T/C runs as follows: under setting [1], 108 % of control; under setting [2], 105 % of control; under setting [3], 99 % of control.
Turning to `COc1ccc(Oc2nc(=O)n3ccsc3n2)cc1`, the T/C (dose: 100.0 mg/kg/injection, schedule: Q04DX003 (ip), vehicle: saline with Tween-80) was 108 % of control; the T/C (dose: 200.0 mg/kg/injection, schedule: Q04DX003 (ip), vehicle: saline with Tween-80) was 86 % of control; the T/C (dose: 400.0 mg/kg/injection, schedule: Q04DX003 (ip), vehicle: saline with Tween-80) was 94 % of control.
For the compound `N#CCCP(=O)(O)CCC#N`, the T/C (dose: 60.0 mg/kg/injection, schedule: Q01DX005 (ip), vehicle: saline) is 100 % of control; the T/C (dose: 120.0 mg/kg/injection, schedule: Q01DX005 (ip), vehicle: saline) is 100 % of control; the T/C (dose: 240.0 mg/kg/injection, schedule: Q01DX005 (ip), vehicle: saline) is 90 % of control.
In the case of `CCC1(O)CC2CN(CCc3c([nH]c4ccccc34)C(C(=O)OC)(c3cc4c(cc3OC)N(C)C3C(O)(C(=O)OC)CC5(CC)C=CCN6CCC43C65)C2)C1` (centres undefined), the T/C (dose: 1.0 mg/kg/injection, schedule: Q01DX001 (ip), vehicle: saline) was 120 % of control and 122 % of control; the T/C (dose: 4.0 mg/kg/injection, schedule: Q01DX001 (ip), vehicle: saline) is 150 % of control; the T/C (dose: 8.0 mg/kg/injection, schedule: Q01DX001 (ip), vehicle: saline) is 155 % of control; the T/C (dose: 16.0 mg/kg/injection, schedule: Q01DX001 (ip), vehicle: saline) is 165 % of control and 175 % of control; the T/C (dose: 32.0 mg/kg/injection, schedule: Q01DX001 (ip), vehicle: saline) is 195 % of control and 205 % of control.
On to `COC(C(=O)C1=C2Oc3c4c(cc(O)c3C(=O)C2C2=C(CCCC2)C1=O)OC(C)(C)C=C4)C(C)CCC=C(C)C` (centres undefined), for which the T/C runs as follows: under setting [4], 112 % of control; (dose: 200.0 mg/kg/injection, schedule: Q01DX005 (ip), vehicle: saline) 90 % of control.
For the compound `CC1NC(=O)C(NC(=O)c2cnc3ccccc3n2)COC(=O)C(C(C)C)N(C)C(=O)C2CSSCC(C(=O)N(C)C(C(C)C)C(=O)OCC(NC(=O)c3cnc4ccccc4n3)C(=O)NC(C)C(=O)N2C)N(C)C1=O` (centres undefined) (I: Quinoxaline2carbonyl-SA[NMeC][NMeV] / II: Quinoxaline2carbonyl-SA[NMeC][NMeV]; ester I:1-II:C, I:C-II:1; disulfide I:3-II:3; configuration not given here), the T/C runs as follows: (dose: 25.0 micrograms/kg/injection, schedule: Q01DX009 (ip), vehicle: water) 150 % of control; (dose: 50.0 micrograms/kg/injection, schedule: Q01DX009 (ip), vehicle: water) 153 % of control; (dose: 100.0 micrograms/kg/injection, schedule: Q01DX009 (ip), vehicle: water) 185 % of control.
On to `CCn1c2ccccc2c2ccc(N=Cc3ccc(N(C)C)cc3)cc21`, for which the T/C is 89 % of control under setting [5]; 94 % of control (dose: 100.0 mg/kg/injection, schedule: Q01DX009 (ip), vehicle: Klucel (hydroxypropylcellulose) (HPC)); 103 % of control (dose: 200.0 mg/kg/injection, schedule: Q01DX009 (ip), vehicle: Klucel (hydroxypropylcellulose) (HPC)).
As for `CCCC[NH-].CCCC[NH-].[I][Pt+2][I]`, the T/C (dose: 0.78 mg/kg/injection, schedule: Q01DX009 (ip), vehicle: other) was 103 % of control and 120 % of control.
On to `CC1([N+](=O)[O-])C(=O)C2(N3CCCC3)CCCC2C1c1ccccc1` (centres undefined), for which the T/C is, setting by setting: (dose: 60.0 mg/kg/injection, schedule: Q01DX005 (ip), vehicle: Klucel (hydroxypropylcellulose) (HPC)) 99 % of control; (dose: 120.0 mg/kg/injection, schedule: Q01DX005 (ip), vehicle: Klucel (hydroxypropylcellulose) (HPC)) 91 % of control; (dose: 240.0 mg/kg/injection, schedule: Q01DX005 (ip), vehicle: Klucel (hydroxypropylcellulose) (HPC)) 90 % of control.
`O=C1[C@@H]2[C@H](C(=O)N1c1ccccc1)[C@H]1CC[C@H]2N1C(=O)c1ccccc1`: the T/C by setting is: under setting [6], 96 % of control; under setting [7], 100 % of control; under setting [8], 88 % of control.
With `N#Cc1c(-c2ccccc2)cn2c1[nH]c(=O)c1c3c(sc12)CCCC3`, the T/C by setting is: under setting [6], 88 % of control and 89 % of control; under setting [7], 87 % of control; under setting [8], 86 % of control and 87 % of control.
On to `c1ccc2c3ccc(c2c1)CCc1ccc(c2ccccc12)CC3`, for which the T/C was 96 % of control (dose: 100.0 mg/kg/injection, schedule: Q04DX003 (ip), vehicle: other) and 90 % of control (dose: 200.0 mg/kg/injection, schedule: Q04DX003 (ip), vehicle: other).
`CC(=O)OCC(COC(C)=O)(CN1C(=O)c2ccccc2C1=O)CN1C(=O)c2ccccc2C1=O`: the T/C reads like this: under setting [6], 100 % of control; under setting [7], 102 % of control; under setting [8], 102 % of control.
For the compound `CCC/C=C1\OC(=O)c2ccccc21`, the T/C runs as follows: (dose: 12.5 mg/kg/injection, schedule: Q01DX009 (ip), vehicle: saline with Tween-80) 104 % of control; under setting [9], 100 % of control; under setting [1], 104 % of control; under setting [2], 100 % of control; under setting [3], 114 % of control.
As for `C1CN2CCC1C1(C2)SSC2(CN3CCC2CC3)S1` (centres undefined), the T/C is, setting by setting: (dose: 6.25 mg/kg/injection, schedule: Q01DX009 (ip), vehicle: saline) 100 % of control; (dose: 12.5 mg/kg/injection, schedule: Q01DX009 (ip), vehicle: saline) 95 % of control; (dose: 25.0 mg/kg/injection, schedule: Q01DX009 (ip), vehicle: saline) 95 % of control.
On to `CCCN(CCC)C(C)C(O)c1cccc2ccccc12` (centres undefined), for which the T/C under setting [4] is 97 % of control and the T/C (dose: 100.0 mg/kg/injection, schedule: Q01DX005 (ip), vehicle: saline) is 109 % of control.
For `CCCCCCCCCCCCCCCCSCC(COC)COP(=O)([O-])OCC[N+](C)(C)C` (centres undefined), the T/C is, setting by setting: (dose: 1.25 mg/kg/injection, schedule: Q01DX005 (oral), vehicle: saline) 109 % of control; (dose: 2.5 mg/kg/injection, schedule: Q01DX005 (oral), vehicle: saline) 106 % of control; (dose: 5.0 mg/kg/injection, schedule: Q01DX005 (oral), vehicle: saline) 110 % of control; (dose: 10.0 mg/kg/injection, schedule: Q01DX005 (oral), vehicle: saline) 110 % of control; (dose: 20.0 mg/kg/injection, schedule: Q01DX005 (oral), vehicle: saline) 109 % of control; (dose: 40.0 mg/kg/injection, schedule: Q01DX005 (oral), vehicle: saline) 108 % of control.
Take `C[n+]1ccccc1/C=C/c1ccc2c(c1)OCO2`: the T/C was 102 % of control (dose: 6.25 mg/kg/injection, schedule: Q01DX009 (ip), vehicle: Klucel (hydroxypropylcellulose) (HPC)); 98 % of control (dose: 12.5 mg/kg/injection, schedule: Q01DX009 (ip), vehicle: Klucel (hydroxypropylcellulose) (HPC)); 110 % of control (dose: 25.0 mg/kg/injection, schedule: Q01DX009 (ip), vehicle: Klucel (hydroxypropylcellulose) (HPC)); 114 % of control under setting [5].
In the case of `C1CSCCSCCCSCCSC1`, the T/C is, setting by setting: under setting [9], 91 % of control; under setting [1], 106 % of control and 90 % of control; under setting [2], 91 % of control and 92 % of control; under setting [3], 96 % of control; (dose: 400.0 mg/kg/injection, schedule: Q01DX009 (ip), vehicle: saline with Tween-80) 91 % of control.
For the compound `CCN(CC)C1=NS(=O)(=O)c2ccccc2C(c2ccccc2)=C1C`, the T/C runs as follows: (dose: 25.0 mg/kg/injection, schedule: Q04DX003 (ip), vehicle: Klucel (hydroxypropylcellulose) (HPC)) 99 % of control; (dose: 50.0 mg/kg/injection, schedule: Q04DX003 (ip), vehicle: Klucel (hydroxypropylcellulose) (HPC)) 99 % of control; (dose: 100.0 mg/kg/injection, schedule: Q04DX003 (ip), vehicle: Klucel (hydroxypropylcellulose) (HPC)) 100 % of control and 95 % of control; (dose: 400.0 mg/kg/injection, schedule: Q04DX003 (ip), vehicle: Klucel (hydroxypropylcellulose) (HPC)) 87 % of control.
`c1cc(Oc2ccc3ccncc3c2)c2ccncc2c1`: the T/C is, setting by setting: (dose: 100.0 mg/kg/injection, schedule: Q01DX001 (ip), vehicle: saline with Tween-80) 100 % of control; (dose: 200.0 mg/kg/injection, schedule: Q01DX001 (ip), vehicle: saline with Tween-80) 100 % of control; (dose: 400.0 mg/kg/injection, schedule: Q01DX001 (ip), vehicle: saline with Tween-80) 95 % of control.
